Data reported in PMC9796023, “In vivo and in vitro characterization of GL0034, a novel long‐acting glucagon‐like peptide‐1 receptor agonist” (Diabetes, Obesity & Metabolism, 2022).
Where no end group is shown, it is not given here. [ ]: non-standard residue; d: D form. Aib = CC(C)(N)C(=O)O

Columns and labels:
[1] = test system: HFHS diet-fed C57BL6/J mice; test: Study in high-fat, high-sucrose diet-fed mice; format: in vivo, mouse; details: end of study, n = 3
Procedure: Male C57BL6/J mice were purchased from Charles River (UK). The mice were housed in a pathogen‐free facility with a 12‐hour light/12‐hour dark cycle. From the age of 8 weeks they were put on a 58 kcal % fat and sucrose diet (D12331; Research Diets Inc., New Brunswick, New Jersey) for 8 weeks to induce obesity and glucose intolerance. […] Body weight was monitored at regular intervals. For glucose tolerance testing, mice were fasted overnight (total 16 hours) and given free access to water. At 9:00 AM, glucose (3 g/kg body weight) was administered via intraperitoneal injection or oral gavage. Blood was sampled from the tail vein at 0, 5, 15, 30, 60 and 90 minutes after glucose administration. Blood glucose was measured with an automatic glucometer (Accuchek; Roche, Burgess Hill, UK). To quantify circulating insulin, 10 μL blood was collected from the tail vein into heparin‐coated tubes (Sarstedt, Beaumont Leys, UK). Plasma was separated by sedimentation at 10 000g for 10 minutes at 4°C. Plasma insulin levels were measured in 5‐μL aliquots by ELISA kits from Crystal Chem (Elk Grove Village, Illinois). At the end of the study, pancreata were isolated and processed for immunohistochemistry.

[2] = Plasma pharmacokinetic study in CD-1 mice; format: in vivo, mouse; details: male CD-1 mice, single s.c. 1 mg/kg, LC-MS/MS, n = 5 per timepoint
Procedure: A plasma pharmacokinetic study of GL0034 was performed in male CD‐1 Mice (6‐9 weeks of age; 30‐50 g body weight) procured from the Laboratory Animal Resources Department of Sun Pharma Advanced Research Company Ltd (www.sparc.life, a subsidiary of Sun Pharma Industries Ltd.). For full details see Supplementary Methods.
(§1) For in vitro data, the average of within‐assay replicates was counted as one biological replicate. For kinetic binding assays, rate constants for association and dissociation of the unlabelled ligands were calculated using the “kinetics of competition binding” algorithm in PRISM 8 (GraphPad Software), using values for exendin(9‐39)‐FITC determined in the same experiment. Functional concentration response data were fitted using three‐parameter logistic fitting (PRISM 8), with constraints applied where appropriate. Pharmacokinetic analysis was performed using Phoenix® Win‐Nonlin® (Version 8.0). Statistical comparisons were performed using Student's t‐test or one‐way ANOVA, as appropriate. Paired or matched analyses were performed where permitted by the experimental design. Specific post hoc tests are indicated in the legends. Statistical significance was assigned where P < 0.05. Data are represented as mean ± standard error of the mean (SEM) throughout, with individual replicates indicated where possible.
Animals (n=45) were procured from Laboratory Animal Resources Dept. of Sun Pharma Advanced Research Company Ltd. (www.sparc.life, a subsidiary of Sun Pharma Industries Ltd.). Animals were acclimatized for one day. On day 0, each animal was weighed. Animals were divided into 9 groups, each group containing 5 male animals (one group representing one time-point). All the animals were injected subcutaneously at a dose of 1 mg/kg (dose volume: 10 ml/kg) using 26½ gauge needle attached to an appropriately graduated syringe. At 1, 2, 4, 8, 12, 24, 48, 72 and 96 hours after injection, ~500 µL of blood was collected from mice by retro-orbital plexus puncture using capillary micro-centrifuge tubes containing anticoagulant (15 µL of 10% K2EDTA per tube). Plasma was separated from the collected blood samples by centrifugation at ~3300 rpm (1985 g) for 10 min at 4°C ± 2°C. GL0034 concentrations were estimated using liquid chromatography with tandem mass spectrometry (LCMS-MS). Lower limit of quantitation (LLOQ) for GL0034 was 50 ng/mL.

[3] = molecular target: T1, human SNAP-GLP-1R (HEK293-SNAP-GLP-1R cells) (Homo sapiens, UniProt P43220); test: cAMP assay (HTRF) in HEK293-SNAP-GLP-1R cells; format: cell-based
T1 construct: expressed in transfected cells
T1 sequence (P43220 24-463): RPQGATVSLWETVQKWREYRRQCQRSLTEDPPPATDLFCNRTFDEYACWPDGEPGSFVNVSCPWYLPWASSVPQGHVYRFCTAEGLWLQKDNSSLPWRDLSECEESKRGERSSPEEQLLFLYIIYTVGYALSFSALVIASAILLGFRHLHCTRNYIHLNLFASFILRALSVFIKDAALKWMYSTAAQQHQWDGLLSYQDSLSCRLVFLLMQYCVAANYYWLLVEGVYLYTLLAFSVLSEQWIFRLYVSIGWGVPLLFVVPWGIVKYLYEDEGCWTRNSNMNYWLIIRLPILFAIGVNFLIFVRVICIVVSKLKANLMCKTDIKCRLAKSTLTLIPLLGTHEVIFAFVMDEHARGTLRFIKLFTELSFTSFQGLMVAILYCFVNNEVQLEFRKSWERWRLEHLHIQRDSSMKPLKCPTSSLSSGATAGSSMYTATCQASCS
Procedure: HEK293‐SNAP‐GLP‐1R cells were stimulated with agonist for 30 minutes at 37°C, either in serum‐free media (SFM) or SFM supplemented with 2% human serum albumin (HSA; Sigma Aldrich, Poole, UK). cAMP was determined at the end of the incubation period by homogenous time‐resolved fluorescence (HTRF; cAMP Dynamic 2 kit; Cisbio) using a Spectramax i3x plate reader (Molecular Devices, Wokingham, UK).
For in vitro data, the average of within‐assay replicates was counted as one biological replicate. For kinetic binding assays, rate constants for association and dissociation of the unlabelled ligands were calculated using the “kinetics of competition binding” algorithm in PRISM 8 (GraphPad Software), using values for exendin(9‐39)‐FITC determined in the same experiment. Functional concentration response data were fitted using three‐parameter logistic fitting (PRISM 8), with constraints applied where appropriate. Pharmacokinetic analysis was performed using Phoenix® Win‐Nonlin® (Version 8.0). Statistical comparisons were performed using Student's t‐test or one‐way ANOVA, as appropriate. Paired or matched analyses were performed where permitted by the experimental design. Specific post hoc tests are indicated in the legends. Statistical significance was assigned where P < 0.05. […]

[4] = molecular target: T1, human SNAP-GLP-1R (HEK293-SNAP-GLP-1R cells); test: Time-resolved FRET kinetic competition binding vs exendin(9-39)-FITC
Procedure: as §1

[5] = molecular target: T2, GLP-1R (PathHunter CHO-K1-βarr2-EA-GLP-1R cells) (Homo sapiens, UniProt P43220); test: PathHunter β-arrestin-2 recruitment assay; format: cell-based
T2 construct: host or cells: CHO-K1 (PathHunter, co-expressing β-arrestin-2-EA)
T2 sequence (P43220 24-463): as above
Procedure: PathHunter CHO‐K1‐βarr2‐EA‐GLP‐1R cells were stimulated with agonist for 30 minutes at 37°C in Ham's F12 medium without FBS. At the end of the incubation period, cells were lysed by addition of PathHunter detection reagents and luminescent signal was subsequently recorded from each well.

[6] = molecular target: human serum albumin (human) (UniProt P02768)
[7] = molecular target: human SNAP-GLP-1R (glucagon-like peptide-1 receptor) on HEK293 cells (human, UniProt P43220 24-463, SNAP tag labelled with SNAP-Lumi4-Tb); test: cell-based or functional assay
Chain of human SNAP-GLP-1R (glucagon-like peptide-1 receptor) on HEK293 cells (P43220 24-463): as above

**Q.** Which Plasma amylase levels [1] does the source give for `CC[C@H](C)[C@H](NC(=O)[C@H](Cc1ccccc1)NC(=O)[C@H](CCC(=O)O)NC(=O)[C@H](CCCCNC(=O)COCCOCCNC(=O)COCCOCCNC(=O)CC[C@H](NC(=O)CCCCCCCCCCCCCCCCC(=O)O)C(=O)O)NC(=O)[C@H](C)NC(=O)[C@H](C)NC(=O)[C@H](CCC(N)=O)NC(=O)CNC(=O)[C@H](CCC(=O)O)NC(=O)[C@H](CC(C)C)NC(=O)[C@H](Cc1ccc(O)cc1)NC(=O)[C@H](CO)NC(=O)[C@H](CO)NC(=O)[C@@H](NC(=O)[C@H](CC(=O)O)NC(=O)[C@H](CO)NC(=O)[C@@H](NC(=O)[C@H](Cc1ccccc1)NC(=O)[C@@H](NC(=O)CNC(=O)[C@H](CCC(=O)O)NC(=O)C(C)(C)NC(=O)[C@@H](N)Cc1cnc[nH]1)[C@@H](C)O)[C@@H](C)O)C(C)C)C(=O)N[C@@H](C)C(=O)N[C@@H](Cc1c[nH]c2ccccc12)C(=O)N[C@@H](CC(C)C)C(=O)N[C@H](C(=O)N[C@@H](CCCNC(=N)N)C(=O)NCC(=O)N[C@@H](CCCNC(=N)N)C(=O)NCC(=O)O)C(C)C` [Semaglutide, reference compound] here?
**A.** no difference

**Q.** With `CC[C@H](C)[C@H](NC(=O)[C@H](Cc1ccccc1)NC(=O)[C@H](CCC(=O)O)NC(=O)[C@H](CCCCNC(=O)COCCOCCNC(=O)C(C)(C)NC(=O)CC[C@H](NC(=O)CCCCCCCCCCCCCCCCC(=O)O)C(=O)O)NC(=O)[C@H](C)NC(=O)[C@H](C)NC(=O)[C@H](CCC(N)=O)NC(=O)CNC(=O)[C@H](CCC(=O)O)NC(=O)[C@H](CC(C)C)NC(=O)[C@H](Cc1ccc(O)cc1)NC(=O)[C@H](CO)NC(=O)[C@H](CO)NC(=O)[C@@H](NC(=O)[C@H](CC(=O)O)NC(=O)[C@H](CO)NC(=O)[C@@H](NC(=O)[C@H](Cc1ccccc1)NC(=O)[C@@H](NC(=O)CNC(=O)[C@H](CCC(=O)O)NC(=O)C(C)(C)NC(=O)[C@@H](N)Cc1c[nH]cn1)[C@@H](C)O)[C@@H](C)O)C(C)C)C(=O)N[C@@H](C)C(=O)N[C@@H](Cc1c[nH]c2ccccc12)C(=O)N[C@@H](CC(C)C)C(=O)N[C@H](C(=O)N[C@@H](CCCNC(=N)N)C(=O)NCC(=O)N[C@@H](CCCNC(=N)N)C(=O)NCC(=O)N[C@@H](CC(C)C)C(=O)O)C(C)C` [GL0034] as the molecule, how does the Kel [2] read?
**A.** 0.0906 h⁻¹

**Q.** What about the Cmax ([2]; mouse, sc) of the same molecule?
**A.** 921 nM

**Q.** What about the Tmax ([2]; mouse, sc) of the same molecule?
**A.** 4 h

**Q.** What about the half-life ([2]; mouse, sc, read-out: t1/2 (plasma half-life) (converted)) of the same molecule?
**A.** 7.65 h

**Q.** And the Plasma amylase levels [1]?
**A.** no difference

**Q.** What about the Emax ([3]; 30 min, 37°C, estimate ± SEM, n = 5) of the same molecule?
**A.** 97 ± 2%

**Q.** And the EC50 ([3]; read-out: cAMP LogEC50 (converted))?
**A.** 0.631 nM

**Q.** What about the Kd [4] of the same molecule?
**A.** 25.1 nM

**Q.** And the koff ([4]; HEK293-SNAP-GLP-1R, 37°C, competition with 10 nM exendin(9-39)-FITC, estimate ± SEM, n = 4)?
**A.** 0.00367 s⁻¹

**Q.** What about the Emax ([5]; 30 min, 37°C, Ham's F12 without FBS, estimate ± SEM, n = 5) of the same molecule?
**A.** 102 ± 1%

**Q.** And the EC50 ([5]; read-out: βarr2 LogEC50 (converted))?
**A.** 79.4 nM

**Q.** With GL0034 (peptide) as the molecule, how does the ∆pEC50 of GLP-1R cAMP signalling potency with and without 2% HSA (HEK293-SNAP-GLP-1R cells) [6] read?
**A.** 2.1

B1: GL0034 (peptide)
chain: H[Aib]EGTFTSDVSSYLEGQAAKEFIAWLVRGRGL
modifications: not fully specified (residue 20); also: K20 linker includes Aib, structure not given here
**Q.** Which results are given for B1?
**A.** GLP-1R endocytosis (high content imaging), HEK293-SNAP-GLP-1R cells, LogEC50 (M) [7]: -9.2 M (log); cAMP production, HEK293-SNAP-GLP-1R cells, 30 minutes, LogEC50 (M) [7]: -9.2 M (log)
